Read-outs that look alike come from different tables or passages of the source.
Tests used:
[1] = test system: murine peritoneal macrophages; tumor targets Daudi and CEM-CM3; experiment: "In vitro-ex vivo" effect on the cytotoxic activity of peritoneal macrophages (lysis of 3H-TdR labelled tumor cells); parameters: species or system mouse (B6 D2 F1, C57B16); tumor targets human
Protocol: Assessment of the "in vitro-ex vivo" effect of ST 557, ST 563, ST 570 and ST 626 on the cytotoxic activity of peritoneal macrophages (M)
Male hybrid B6 D2 F1 aged 7-9 weeks and male inbred mice C57B16 aged 8 weeks were used (4 animals/group).
All the compounds were administered i.p. (25 mg/kg/day). ST 557 was also administered per os (100 mg/kg/day) from day -5 to day -1 (peritoneal exudate cell [PEC] harvesting at day 0).
PEC were obtained from sacrificed animals, 24 hours following the end of treatment, via repeated washings of the abdominal cavity. The peritoneal exudates obtained from each group of animals were pooled.
The macrophage percentage was assessed by counting in a Burker chamber; cell suspensions (concentration=2×10^6 M/ml) were prepared.
The macrophage cytotoxic activity was assessed using the following two tumor cell lines as targets: Daudi, derived from a human lymphoblastoma and CEM-CM3, derived from human lymphoblastic leukemia (both lines are disclosed in ATCC--American Type Culture Collection--Cell lines of hybridoma, 5th Ed.--1985).
The experimental procedure is substantially the same as that described by Herscowitz, H. B. (1981)--Manual of Macrophage Methodology. Dekker M, Editor.
In particular, samples of cell lines were labelled with ^3 H-TdR (tritiated thymidine) and their concentration was adjusted to 5×10^4 cells/ml. They were then added to the macrophage preparations (using 96-well microtiter plates) and the volumes were adjusted so as to obtain Effector (macrophage)/Target (tumor cell) ratios of 20:1; 40:1 and 80:1 in an overall volume of 0.3 ml/well.
Three replicates for each sample were prepared; after 48 and 72 hours of incubation at 37° C. in 5% CO2. Aliquots of 0.1 ml of supernatant were drawn out from each well and counted in a β-counter.
The macrophage cytotoxic activity results in a tumor cell lysis that causes the release of the radioactivity incorporated by the cells into the supernatant.
Based on the βeta-counter data (in cpm) this activity is expressed as the percentage of radioactivity released following lysis with respect to the radioactivity incorporated by the tumor cells.
The relevant formulas are as follows: [formula]
The measures carried out on the samples account for a certain degree of lysis occurring spontaneously in cultured tumor cells not exposed to macrophages. Total radioactivity incorporated by the tumor cells is calculated by conducting a lysis with 1% SDS in distilled water.

[2] = test system: peritoneal macrophages of treated mice; target tumor cells; experiment: "In vitro-ex vivo" effect on the cytostatic activity of peritoneal macrophages; parameters: species or system mouse (B6 D2 F1); tumor targets human
Protocol: Assessment of the "in vitro-ex vivo" effect of ST 557, ST 563 and ST 570 on the cytostatic activity of peritoneal macrophages
Male B6 D2 F1 mice aged 7-9 weeks (5 animals per group) were used.
The compounds were administered i.p. (25 mg/kg/day), ST 557 and ST 563 were also administered per os (100 mg/kg/day) from day -5 to day -1 (peritoneal cell harvesting at day 0).
The macrophages and target tumor cell lines were prepared as in test 1 and their concentrations were adjusted to 1×10^6 M/ml and 5×10^4 cell/ml, respectively.
Volumes of tumor cells were added to the macrophage preparations so as to obtain Effector/Target ratios of 10:1, 20:1 and 40:1.
Each sample was pulsed with ^3 H-TdR for 18 hours in order to label the tumor cells, which were then collected on filters and counted in a beta-counter.
The macrophage cytostatic activity is expressed as percentage inhibition of tumor cell replication, by assessing the radioactivity incorporated by the tumor cells in each sample with respect to the maximum radioactivity incorporated by a sample consisting of tumor cells only. [formula]

[3] = test system: murine peritoneal exudate cells (PEC); experiment: "In vitro-ex vivo" effect on the phagocytic activity of exudate peritoneal cells (SRBC phagocytosis); parameters: species or system mouse (B6 D2 F1); details: for SRBC per phagocytizing cell: average number of SRBC in each phagocyte
Protocol: Assessment of the "in vitro-ex vivo" effect of ST 557, ST 563, ST 564, ST 570, ST 608 and ST 626 on the phagocytic activity of exudate peritoneal cells (PEC)
Male B6 D2 F1 mice aged 6-8 weeks (5 animals each group) were used.
The compounds were administered i.p. (25 mg/kg/day), ST 557, ST 563 and ST 626 were also administered per os (100 mg/kg/day) from day -5 to day -1 (PEC harvesting at day 0).
The experimental procedure was substantially the same as that described by Williams et al., in "Methods in Immunology and Immunochemistry", Acad. Press. 5: 261 (1976).
In particular, 24 hours following the end of the treatment, PECs from each experimental group were harvested, pooled and their concentration was adjusted to 4×10^6 cells/ml.
To volumes of 250 μl of each PEC sample were added equal volumes of 0.4% SRBC (Sheep Red Blood Cells) opsonized with hyperimmune serum.
The samples (duplicate) were incubated for 1 hour and then subjected to hypotonic shock in order to remove the non-phagocytized SRBC. After restoring the osmolarity, the phagocytes were cytocentrifuged, stained with a differential dye and observed under the microscope.
The results were expressed as:
(a) percentage of cells that have phagocytized with respect to 100 phagocytizing cells;
(b) total number of phagocytized SRBC;
(c) average number of SRBC in each phagocyte.

[4] = Tolerability after oral or intravenous administration; parameters: species or system mouse (Swiss albino); details: mouse, in vivo, 7 days observation, read-out: Tolerability, dose
Protocol: The test was conducted in male Swiss albino mice weighing 22-24 g.
A group of animals (4 animals/dose) which had been kept fasting for 18 hours, were orally administered the compounds ST 557, ST 563, ST 564 and ST 570 dissolved in twice distilled water.
A further group of animals, which had free access to food and water, were administered intravenously the same compounds dissolved in saline it pH 7. All the animals were kept under observation for 7 days.

[5] = 48 hours, E/T 20:1, 25 mg/kg/day i.p., B6 D2 F1
[6] = 48 hours, E/T 20:1, 25 mg/kg/day i.p., repeated experiment, B6 D2 F1
[7] = 48 hours, E/T 40:1, 25 mg/kg/day i.p., B6 D2 F1
[8] = 48 hours, E/T 40:1, 25 mg/kg/day i.p., repeated experiment, B6 D2 F1
[9] = 48 hours, E/T 80:1, 25 mg/kg/day i.p., repeated experiment, B6 D2 F1
[10] = 72 hours, E/T 20:1, 25 mg/kg/day i.p., B6 D2 F1
[11] = 72 hours, E/T 20:1, 25 mg/kg/day i.p., repeated experiment, B6 D2 F1
[12] = 72 hours, E/T 40:1, 25 mg/kg/day i.p., B6 D2 F1
[13] = 72 hours, E/T 40:1, 25 mg/kg/day i.p., repeated experiment, B6 D2 F1
[14] = 72 hours, E/T 80:1, 25 mg/kg/day i.p., repeated experiment, B6 D2 F1

Row | SMILES | % lysis of tumor target [1, 5] [%] | % lysis of tumor target [1, 6] [%] | % lysis of tumor target [1, 7] [%] | % lysis of tumor target [1, 8] [%] | % lysis of tumor target [1, 9] [%] | % lysis of tumor target [1, 10] [%] | % lysis of tumor target [1, 11] [%] | % lysis of tumor target [1, 12] [%] | % lysis of tumor target [1, 13] [%] | % lysis of tumor target [1, 14] [%] | % of inhibition of target tumor growth ([2]; E/T 10:1, 100 mg/kg/day os) [%] | % of inhibition of target tumor growth ([2]; E/T 20:1, 25 mg/kg/day i.p.) [%] | % of inhibition of target tumor growth ([2]; E/T 20:1, 100 mg/kg/day os) [%] | % of inhibition of target tumor growth ([2]; E/T 40:1, 25 mg/kg/day i.p.) [%] | % of inhibition of target tumor growth ([2]; E/T 40:1, 100 mg/kg/day os) [%] | Fagocytizing cells ([3]; 25 mg/kg/day i.p.) [%] | Total n° SRBC phagocytized ([3]; 25 mg/kg/day i.p.) | SRBC per phagocytizing cell ([3]; 25 mg/kg/day i.p.) | Fagocytizing cells ([3]; 100 mg/kg/day os) [%] | Total n° SRBC phagocytized ([3]; 100 mg/kg/day os) | further results
1 | COc1cc2c(cc1OC)CC(NCC(O)c1ccc(C)cc1)CC2 (stereo not shown) [ST 563, 2-[(N-2-hydroxy-2-(4-methylphenyl)ethyl)amino]-6,7-dimethoxytetraline] | 9.1 ± 0.2 | 7.7 ± 0.6 | 15.4 ± 0.2 | 9.4 ± 0.7 | 16.0 ± 1.0 | 11.0 ± 0.1 | 12.7 ± 0.5 | 18.3 ± 0.1 | 14.9 ± 0.9 | 22.2 ± 1.4 | 25.0 ± 4.9 | 35.0 ± 1.6 | 47.3 ± 0.6 | 55.7 ± 1.4 | 62.8 ± 3.1 | 42.5 | 146.0 | 3.40 | 58.5 | 164.0 | SRBC per phagocytizing cell ([3]; 100 mg/kg/day os): 2.80; MTD at 168 h ([4]; iv): > 20 mg/kg; MTD at 168 h ([4]; po, os, fasting 18 hours): > 50 mg/kg
2 | COc1cc2c(cc1OC)CC(N(CC1CC1)CC1CC1)CC2 (stereo not shown) [ST 557, 2-[(N,N-dicyclopropylmethyl)amino]-6,7-dimethoxytetraline] | 10.7 ± 0.2 | 7.8 ± 0.7 | 24.6 ± 0.8 | 13.2 ± 0.7 | 32.4 ± 0.9 | 13.1 ± 0.3 | 13.0 ± 0.7 | 29.3 ± 0.9 | 18.7 ± 0.9 | 45.3 ± 0.9 | 24.3 ± 2.2 | 45.1 ± 1.1 | 38.7 ± 1.6 | 68.9 ± 1.4 | 62.8 ± 3.1 | 29.6 | 93.6 | 3.20 | 59.0 | 190.5 | % lysis of tumor target ([1]; 48 hours, E/T 20:1, 25 mg/kg/day i.p., repeated experiment, C57B16 mice): 10.8 ± 0.6%; % lysis of tumor target ([1]; 48 hours, E/T 20:1, 100 mg/kg/day os, B6 D2 F1): 22.7 ± 0.6%; % lysis of tumor target ([1]; 48 hours, E/T 40:1, 25 mg/kg/day i.p., repeated experiment, C57B16 mice): 16.4 ± 0.8%; % lysis of tumor target ([1]; 48 hours, E/T 40:1, 100 mg/kg/day os, B6 D2 F1): 30.1 ± 0.7%; % lysis of tumor target ([1]; 48 hours, E/T 80:1, 25 mg/kg/day i.p., repeated experiment, C57B16 mice): 28.3 ± 0.5%; % lysis of tumor target ([1]; 48 hours, E/T 80:1, 100 mg/kg/day os, B6 D2 F1): 29.7 ± 0.9%; % lysis of tumor target ([1]; 72 hours, E/T 20:1, 25 mg/kg/day i.p., repeated experiment, C57B16 mice): 11.9 ± 0.7%; % lysis of tumor target ([1]; 72 hours, E/T 20:1, 100 mg/kg/day os, B6 D2 F1): 29.7 ± 1.2%; % lysis of tumor target ([1]; 72 hours, E/T 40:1, 25 mg/kg/day i.p., repeated experiment, C57B16 mice): 11.9 ± 0.4%; % lysis of tumor target ([1]; 72 hours, E/T 40:1, 100 mg/kg/day os, B6 D2 F1): 41.5 ± 1.3%; % lysis of tumor target ([1]; 72 hours, E/T 80:1, 25 mg/kg/day i.p., repeated experiment, C57B16 mice): 30.9 ± 0.1%; % lysis of tumor target ([1]; 72 hours, E/T 80:1, 100 mg/kg/day os, B6 D2 F1): 44.4 ± 0.3%; SRBC per phagocytizing cell ([3]; 100 mg/kg/day os): 3.23; MTD at 168 h ([4]; iv): > 4 mg/kg; MTD at 168 h ([4]; po, os, fasting 18 hours): > 20 mg/kg

— patent publication US5962525A, “6,7-disubstituted-2-aminotetralines active as immunomodulators and pharmaceutical compositions containing same” (Sigma-Tau, priority 1990, dated 1999)
